Measurements published in the Kinase Knowledgebase extract (Sharma et al. 2016).

Target: CDK2 (human) (UniProt P24941)
Test: Enzyme Assay

Ki, < 1000 nM:
Cc1cnc(NC(CCSc2ccc3c(=O)[nH][nH]c3c2)c2ccccc2)s1 (stereo not given)
CC(C)c1cc(Nc2nc(Nc3ccc4c(=O)[nH][nH]c4c3)nc3ccc(-c4ccccc4)cc23)n[nH]1
O=c1[nH][nH]c2cc(COC3CCCC3Nc3cc(C4CC4)[nH]n3)ccc12 (stereo not given)
O=c1[nH][nH]c2cc(SC3CCC(Nc4cc(C5CC5)[nH]n4)C3)ccc12 (stereo not given)
O=c1[nH][nH]c2cc(Nc3nc(Nc4cc(C5CC5)[nH]n4)c4cc(-c5ccccc5Cl)ccc4n3)ccc12
O=c1[nH][nH]c2cc(OCCC(Nc3ccccn3)c3ccccc3)ccc12 (stereo not given)
CN(C)CCNc1nnc(Nc2n[nH]c3ccccc23)cc1-c1ccc2[nH][nH]c(=O)c2c1Cl
COc1c(-c2nc(Nc3cc(C)[nH]n3)c3ccccc3n2)ccc2[nH][nH]c(=O)c12
Cc1cnc(NCCC(=O)Cc2ccc3c(=O)[nH][nH]c3c2)s1
O=c1[nH][nH]c2cc(OC(CCNc3cc(C4CC4)[nH]n3)Cc3ccccc3)ccc12 (stereo not given)
CC1CCN(c2nc(Nc3n[nH]c4ccccc34)nc(-c3cc4c(=O)[nH][nH]c4cc3C(F)(F)F)n2)C1 (stereo not given)
O=C(CCSc1ccc2c(=O)[nH][nH]c2c1)Nc1ccccn1
Cc1cnc(NC(CCCc2ccc3c(=O)[nH][nH]c3c2)c2ccccc2)s1 (stereo not given)
O=c1[nH][nH]c2ccc(-c3nc4c(c(Nc5n[nH]c(-c6cccnc6)n5)n3)CCCC4)c(C(F)(F)F)c12
Cc1cc(Nc2nc(Nc3ccc4c(=O)[nH][nH]c4c3)nc3ccccc23)n[nH]1
O=c1[nH][nH]c2cc(OCC3CCCC3Nc3nccnn3)ccc12 (stereo not given)
Cc1cnc(NCCCCc2ccc3c(=O)[nH][nH]c3c2)s1
Cn1cnc(NC(=O)CCOc2ccc3c(=O)[nH][nH]c3c2)c1
O=C(CC(=O)Oc1ccc2c(=O)[nH][nH]c2c1)Nc1cc(C2CC2)[nH]n1
O=c1[nH][nH]c2cc(NC(CCNc3cc(C4CC4)[nH]n3)Cc3ccccc3)ccc12 (stereo not given)
O=c1[nH][nH]c2cc(NCCC(Nc3nccnn3)c3ccccc3)ccc12 (stereo not given)
O=c1[nH][nH]c2cc(NC(CCNc3ccccn3)Cc3ccccc3)ccc12 (stereo not given)
O=c1[nH][nH]c2cc(OCC3CCCC3Nc3ccccn3)ccc12 (stereo not given)
O=c1[nH][nH]c2ccc(-c3nc(Nc4n[nH]c5ccccc45)cc(Oc4ccccc4)n3)c(C(F)(F)F)c12
CC(C)(C)c1cc(Nc2cc(-c3cccc([N+](=O)[O-])c3)nc(Nc3ccc4c(=O)[nH][nH]c4c3)n2)n[nH]1
O=c1[nH][nH]c2cc(Cl)c(-c3nc(Nc4n[nH]c5ccccc45)nc(-c4cccnc4)n3)cc12
Cn1cnc(NCCCNc2ccc3c(=O)[nH][nH]c3c2)c1
O=c1[nH][nH]c2cc(SC3COCC(Nc4nccnn4)C3)ccc12 (stereo not given)
O=c1[nH][nH]c2ccc(-c3nc(Nc4n[nH]c5c(F)cc(F)cc45)c4ccncc4n3)c(Cl)c12
Cc1cnc(NCCC(=O)Nc2ccc3c(=O)[nH][nH]c3c2)s1
O=c1[nH][nH]c2cc(OC3COCC(Nc4cc(C5CC5)[nH]n4)C3)ccc12 (stereo not given)
Cc1cc(Nc2nc(Sc3ccc4c(=O)[nH][nH]c4c3)nc3c(O)cccc23)n[nH]1
O=c1[nH][nH]c2cc(OCCCNc3ccccn3)ccc12
Cn1cnc(NC2CCCC2CSc2ccc3c(=O)[nH][nH]c3c2)c1 (stereo not given)
Cc1cnc(NC(=O)CCCc2ccc3c(=O)[nH][nH]c3c2)s1
